How the values were obtained:
[1] = system: infarcted lesions caused by the occlusion of middle cerebral artery in rat; assay: Effect on cerebral ischemic (infarcted) lesions caused by occlusion of middle cerebral artery in rat; format: in vivo, Rat (male Sprague Dawley); conditions: rat MCA occlusion; for Infarcted lesions (ratio of infarcted lesions to total area) / Reduction ratio of infarcted lesions: i.v. infusion 10 mg/kg/hr for 24 hours; for Infarcted lesions (ratio of infarcted lesions to total area): TTC staining, control group 16.1, * P < 0.05, ** P < 0.001 to control; for Reduction ratio of infarcted lesions: infarcted lesions of control group defined as 100%
Procedure: (§1) Rat middle cerebral artery was occluded according to the method of Tamura et. al. (J. Cerebral Blood Flow and Metabolism, 53-60, 1981).
Male Sprague Dawley rats, aged 8 to 10 weeks, were occluded of their left middle cerebral artery under 2% halothane anesthesia. (-)-1-(3-Pyridylcarbonyl)-5-methyl-2-pyrazoline dissolved in 0.9% physiological saline was infused into rats through the caudal vein at a rate of 10 mg/kg/hr for 24 hours. A control group was intraveneously infused with 0.9% physiological saline for 24 hours. Rats were sacrificed to death 24 hours after the occlusion of the middle cerebral artery and brain was excised from each rat. After staining with TTC, the excised brain was cut in 6 identical parts from its top. Cross sections were photographed to measure the ratio of infarcted lesions to total area with a planimeter so that the reduction ratio of infarcted lesions by the drug administration was calculated, provided that the infarcted lesions of the control group was defined as 100%.

[2] = system: cerebral edema caused by the occlusion of rat middle cerebral artery; assay: Suppression of ischemic cerebral edema caused by occlusion of middle cerebral artery in rat; format: in vivo, Rat (male Sprague Dawley); conditions: rat MCA occlusion; for Suppression ratio of cerebral edema: i.v. infusion through caudal vein 3 or 10 mg/kg/hr for 24 hours (dose not given), brain water content at 24 hours, * P < 0.05, ** P < 0.001 to control
Procedure: as §1
Male Sprague Dawley rats, aged 8 to 10 weeks, were occluded of their left middle cerebral artery under 2% halothane anesthesia. (-)-1-(3-Pyridylcarbonyl)-5-methyl-2-pyrazoline dissolved in 0.9% physiological saline was infused into rats through the caudal vein at a rate of 3 or 10 mg/kg/hr for 24 hours. Rats were sacrificed to death 24 hours after the occlusion of the middle cerebral artery and brain was excised from each rat to determine the water contents in the two cerebral hemispheres, left and right, by the wet and dry weighing method. The occlusion of middle cerebral artery was also conducted on the control group of rats, and they were subsequently infused with 0.9% physiological saline for 24 hours similarly in the drug-administered group. The suppressive ratio of cerebral edema was determined by the following equation. [formula] Cl: Water contents in left cerebral hemisphere of control group CR: Water contents in right cerebral hemisphere of control group
SL: Water contents in left cerebral hemisphere of drug-administered group
SR: Water contents in right cerebral hemisphere of drug-administered group

[3] = Acute toxicity (LD50), intravenous, rat; format: in vivo; conditions: in vivo, iv, mortality up to 72 hours after administration
Procedure: (§2) The drug was intraveneously administered to rats and determined the mortality ratio up to 72 hours after the administration, to calculate 50% lethal dose (LD50) by acute toxicity according to the routine method.

[4] = system: rats; assay: Acute toxicity (LD50), intravenous, rat; format: in vivo; conditions: for Acute toxicity LD50: mortality up to 72 hours after administration, 4320 min
Procedure: as §2

[5] = literature: Anesthesiology, 47, 285, 1977; Nippon Rinsho, 43, 185, 1985; cited from earlier work

Which results are given for CC1CC=NN1C(=O)c1cccnc1 (racemic) [Racemic modification, (±)-1-(3-Pyridylcarbonyl)-5-methyl-2-pyrazoline]?
Infarcted lesions (ratio of infarcted lesions to total area) [1]: 11.0%; Reduction ratio of infarcted lesions [1]: 32.0; Suppression ratio of cerebral edema [2]: 18.7%; LD50 at 72 h [3]: 800 mg/kg

With CC1CC=NN1C(=O)c1cccnc1 (single isomer, unassigned; (+)) [(+)-form, (+)-1-(3-Pyridylcarbonyl)-5-methyl-2-pyrazoline] as the compound, how does the “Suppression ratio of cerebral edema” value [2] read?
Its value is 15.7%.

What about the “Acute toxicity LD50” value [4] of the same compound?
The value was 400 mg/kg.

With CC1CC=NN1C(=O)c1cccnc1 (single isomer, unassigned; (-)) [(-)-form, (-)-1-(3-Pyridylcarbonyl)-5-methyl-2-pyrazoline] as the compound, how does the “Effect on infarcted area (in words)” value ([1]; 10 mg/kg/hr for 24 hours) read?
The value was “significantly reduced the infarcted area caused by the occlusion of rat middle cerebral artery and it acted more strongly than the racemic modification”.

And the “Infarcted lesions (ratio of infarcted lesions to total area)” value [1]?
Its value is 8.5%.

And the “Reduction ratio of infarcted lesions” value [1]?
Its value is 48.9.

What about the “Effect on cerebral edema (in words)” value [2] of the same compound?
The value was “significantly depressed cerebral edema caused by the occlusion of the middle cerebral artery in rats and it acted more strongly than the racemic modification or (+)-form”.

What about the “Suppression ratio of cerebral edema” value [2] of the same compound?
Its value is 28.4%.

What about the “Acute toxicity (in words)” value [4] of the same compound?
The value was “less than that of the racemic modification or (+)-form”.

And the “Acute toxicity LD50” value [4]?
The value was 1200 mg/kg.

Which “Brain protective action / suppression of cerebral edema (in words)” value [5] does the source give for CCCC(C)C1(CC)C(=O)NC(=O)NC1=O (centres unmarked) [pentobarbital] here?
The value was “protective action of brain against cerebral ischemia”.
